The test system of assay [1] is GPR158 driven by a doxycycline inducible promoter; AR, PSA. Put plainly: Dox induction in lenti-GPR158 LNCaP cells (western blotting). The class given is cell-based, human. A general note: Immunoblotting shows a protein as a band on a membrane.
Assay [2] concerns lenti-GPR158 LNCaP cells. Put plainly: Cell counting of lenti-GPR158 LNCaP cells after Dox treatment. The class given is cell-based, human. Particulars: Dox 100 ng/mL.
For assay [3], the system named is GPR158, AR and PSA expression in C4-2B cells. Conditions: DHT 10 nM. The protocol:
(§1) FIG. 2: Effects of an androgen on GPR158 expression. […] Total RNA (FIG. 2A-FIG. 2C) or cell lysates (FIG. 2E-FIG. 2G) were isolated and subjected to qRT-PCR and western blotting, respectively to estimate AR, PSA, GPR158 and beta-actin expression. […] Total RNA or the whole cell lysates were isolated and qRT-PCR and western blotting was performed, respectively to detect GPR158, AR, PSA and beta-actin levels (FIG. 2D) The mRNA level of the above indicated genes was considered 1 in cells grown in 10% FCS for calculating the relative fold difference of these genes in other experimental conditions. (FIG. 2A-FIG. 2H) The data represent three independent experiments.
(§2) For androgen starvation studies, LNCaP, PC-3, and DU145 cells were grown in 10% CSS.
(§3) Total RNA isolated from PCa cell lines with Aurum total RNA mini kit (Bio-Rad, Hercules, Calif.) was subjected to qRT-PCR analysis using iScript one-step RT-PCR kit with SYBR Green (Bio-Rad) on CFX96 Touch Real-Time PCR Detection System (Bio-Rad), according to the manufacturer's instructions. Relative quantification values of genes of interest were calculated as 2^−ΔΔCt by the comparative Ct method, where ΔΔCt=(Ct target mRNA of treated sample-Ct reference gene of treated sample)-(Ct target mRNA of control sample-Ct reference gene of control sample). The Inventors used beta-actin or GAPDH as a reference gene.
(§4) The whole cell lysates were prepared using radioimmunoprecipitation assay (RIPA) lysis buffer (50 mM Tris, 150 mM NaCl, 0.1% SDS, 0.5% Sodium Deoxycholate, 1% NP-40) spiked with a cocktail of protease inhibitors for 20 min, followed by centrifugation at 10,000 g for 10 min. Supernatants were collected and proteins in the extracts were separated by SDS-PAGE without boiling the samples and transferred to PVDF membranes. Membranes were probed with primary antibody against protein of interest and were developed by chemiluminescence with reagents Luminol enhancer solution and peroxide solution (GE Healthcare UK limited, Buckinghamshire, UK) and images were captured with Fujifilm imaging system (LAS-4000; Fujifilm, Tokyo, Japan). Protein loading was monitored by stripping and reprobing of the membrane with beta-actin antibody.

In assay [4] the test system is GPR158, AR and PSA expression in PHPECs. Particulars: DHT 10 nM. As for the experimental part:
as §1, §2, §3, §4

The subject of assay [5] is GPR158, AR and PSA expression in LNCaP cells. Conditions: DHT 10 nM. The protocol:
as §1, §2, §3, §4

For the compound `C[C@H]1c2cccc(O)c2C(=O)C2=C(O)[C@]3(O)C(=O)C(C(N)=O)=C(O)[C@@H](N(C)C)[C@@H]3[C@@H](O)[C@@H]21` [Dox, doxycycline], the “induction of GPR158 protein” value in assay [1] (Dox 100 ng/mL, at 4, 6 and 8 days (data not shown)) turned out to be 3 fold. In assay [1] (Dox 500 ng/mL, 3 days), the “increase in GPR158 protein levels” value was approximately 6 fold. In assay [2] (3 days, normalized for Dox alone on parental cells), the “increase in cell numbers” value was 2.25 fold. In addition, the “increase in cell numbers (growth curve)” value in assay [2] (at 4, 6 and 8 days vs untreated) was “approximately 2 fold”.

In the case of `C[C@]12CCC(=O)C[C@@H]1CC[C@@H]1[C@@H]2CC[C@]2(C)[C@@H](O)CC[C@@H]12` [DHT, dihydrotestosterone], the “effect on GPR158 mRNA and protein levels” value in assay [3] (C4-2B cells, 10% CSS) is on record as “no effect”. In addition, the AR protein stabilization entry is given as “not in C4-2B cells” in assay [3] (C4-2B); “AR protein stabilization” in assay [4] (PHPEC, 12 hrs); “AR protein stabilization” in assay [5] (LNCaP, 12 hrs). The “PSA mRNA and protein levels” value in assay [3] (C4-2B), in assay [4] (PHPEC) and in assay [5] (LNCaP) was “increased significantly” throughout. The “increase of GPR158 mRNA and protein levels” value in assay [4] (PHPECs, 24 hrs, 10% CSS) is reported as 3-4 fold; in assay [5] (LNCaP cells, 24 hrs, 10% CSS), 3-4 fold.

Values taken from US20180066064A1, “BIOTHERAPEUTICS TARGETING GPR158 FOR CANCER” (University of Southern California, priority 2015, published 2018).
